According to patent publication US12360118B2, “Method for protein kinase activity ranking” (KINOMICA LIMITED, priority 2015, dated 2025):

How the values were obtained:
[1] = tested on: eight haematological cell-lines; assay: Viability of haematological cell-lines (Guava ViaCount) and sensitivity coefficient (SC); format: cell-based; conditions: nine kinase inhibitors of Table 1
Experimental: B-cell lymphoma and leukemia cell-lines were routinely maintained in RPMI-1640 medium supplemented with 10% fetal-bovine serum (FBS) and 100 U·mL^−1 penicillin/streptomycin (P/S). Cells were maintained at a confluency of 0.5-2.0×10^6 cells·mL^−1. Stromal cells were grown in IMDM medium (supplemented with 10% FBS and 100 U·mL^−1 P/S) and maintained at a confluency of 2.0-30.0×10^6 cells in 175 cm^2 flasks. MS-5 conditioned IMDM medium was generated by growing stromal cells in IMDM for 3 days. All cells were kept at 37° C. in a humidified atmosphere at 5% CO2.
Cell-lines were seeded in 96 well plates (10,000 cells-well-), left overnight and treated with vehicle, or 1 to 1000 nM of AZD-5438 (CDK2i;), GF-109203X (PKCαi; Tocris), PF-3758309 (PAKi; Calbiochem), Trametinib (MEKi; Selleckchem), MK-2206 (AKTi; Selleckchem), KU-0063794 (mTORi; Chemdea) or TAK 715 (P38αi;). Cells were also treated with 0.01 to 10 μM of PKC-412 (PKC/Flt3i; Tocris) or 0.1 to 10 μM of TBB (CK2i; Sigma). After 72 h, cells were stained with Guava ViaCount reagent (Millipore) as indicated by the manufacturer and cell number and viability was measured using a Guava EasyCyte Plus instrument. […] After 72 h, cells were stained with Guava ViaCount reagent and cell number and viability was measured. […] Flow cytometry data were analyzed using CytoSoft (v2.5.7). IC50 values were calculated using Graphpad PRISM (v5.03). […]

tyrosine kinases = assay: K-score (Kinase Activity Ranking) of cells after pervanadate treatment, LC-MS/MS phosphoproteomics; format: cell-based; conditions: 1 mM sodium pervanadate, 30 min; lysates mixed with untreated lysates
Experimental: Technical replicates were averaged and peak areas for each phosphopeptide ion were then normalized to the sum of peptide intensities for each sample. […] Kinase Activity Ranking (KAR) was calculated for kinase K using the equation below (where m=the number of phosphorylation sites in the dataset matched to kinase K; α=the normalized intensity of the phosphorylation site i; l=the total number of phosphorylation sites in the dataset regardless of any kinase-substrate association; β=the normalized intensity of the phosphorylation site j; t=the total number of known target phosphorylation sites in the PhosphoSitePlus database for kinase K). […]
P31/Fuj cells were exposed to 1 mM sodium pervanadate or left untreated during 30 min (Sodium pervanadate was prepared by mixing 30% H2O2 and 100 mM Na3VO4 pH 8.0 at 1:100 ratio during 15 min). […] After homogenization and protein quantification, treated and untreated cell lysates were mixed to a final protein concentration of 1.0 μg·μL^−1. […]
We first investigated the reproducibility and quantitative nature of Kinase Activity Ranking (KAR, which produces K-scores) as a measure of net kinase activity. […] To test the reproducibility of the analysis, we performed this experiment on three independent occasions and each was analyzed in analytical triplicate. […]

primary AML cells = assay: Viability of primary AML cells (Guava ViaCount), IC50 and SC; format: cell-based, human; conditions: 36 primary AML cases; threshold 50% reduction in viability at 1 μM
Experimental: All patients gave informed consent for the storage of their blood cells for research purposes. Each procedure was conducted in accordance with the East London and City Research Ethics Committee, as previously described (Miraki-Moud, F. et al. Blood 125, 4060-4068 (2015)). All studies comply with the rules of the Review Board and by the revised Helsinki protocol. Peripheral blood was extracted from AML patients at St Bartholomew's Hospital and mononuclear cells, isolated using Ficoll gradient followed by red cell lysis, were stored in liquid N2. Primary AML blasts were thawed following standard procedures: briefly, vials were defrosted at 37 C and exposed to 500 μg of DNAse (Sigma) for 5 minutes. […] Cell number and viability were determined by trypan blue staining using a Vi-CELL XR cell viability analyser (Beckman Coulter).
Cell-lines were seeded in 96 well plates (10,000 cells-well-), left overnight and treated with vehicle, or 1 to 1000 nM of AZD-5438 (CDK2i;), GF-109203X (PKCαi; Tocris), PF-3758309 (PAKi; Calbiochem), Trametinib (MEKi; Selleckchem), MK-2206 (AKTi; Selleckchem), KU-0063794 (mTORi; Chemdea) or TAK 715 (P38αi;). […] After 72 h, cells were stained with Guava ViaCount reagent (Millipore) as indicated by the manufacturer and cell number and viability was measured using a Guava EasyCyte Plus instrument. […] Flow cytometry data were analyzed using CytoSoft (v2.5.7). […]

CDK2 = CDK2 (Homo sapiens, UniProt P24941); conditions: off-target of the PKCα inhibitor; cited from earlier work

Row | Molecule | Ranking of the kinase inhibitors based on their SCs (sensitivity coefficients) [1] | Number of cases sensitive to this inhibitor only (primary AML cells) | further results
1 | Cc1ncc(-c2ccnc(Nc3ccc(S(C)(=O)=O)cc3)n2)n1C(C)C [CDK2i, AZD5438] | ranked the highest |  | 
2 | sodium pervanadate [pV] |  |  | Change of the K-Score of tyrosine kinases (tyrosine kinases): increase
3 | Cc1nc(Nc2[nH]nc3c2CN(C(=O)N[C@H](CN(C)C)c2ccccc2)C3(C)C)c2sccc2n1 [PAKi, PF03758309] | ranked the highest |  | 
4 | O=C(O)c1ccc2c(c1)nc(Nc1cccc(Cl)c1)c1ccncc12 [CK2i, CX4945] |  | Five | 
5 | CN(C)CCCn1cc(C2=C(c3c[nH]c4ccccc34)C(=O)NC2=O)c2ccccc21 [PKCαi, GF109203X] |  |  | Inhibition of CDK2 (CDK2): high potency
6 | CC(=O)Nc1cccc(-n2c(=O)n(C3CC3)c(=O)c3c(Nc4ccc(I)cc4F)n(C)c(=O)c(C)c32)c1 [MEK1i, GSK1120212] |  | three | 
